How the values were obtained:
Format in all cases: in vivo, mouse
[1] = tested on: ddY mice; assay: Prepulse inhibition (PPI) test, offspring after maternal glyphosate exposure; conditions: juvenile offspring, maternal 0.095% glyphosate vs water
Experimental: PPI: The offspring mice were tested for their acoustic startle reactivity (ASR) in a startle chamber (SR-LAB; San Diego Instruments, San Diego, CA, USA) using the standard methods described previously (9,10). The test sessions were begun after an initial 10-min acclimation period in the chamber. The mice were subjected to one of six trials: (1) pulse alone, as a 40 ms broadband burst; a pulse (40 ms broadband burst) preceded by 100 ms with a 20 ms prepulse that was (2) 4 dB, (3) 8 dB, (4) 12 dB, or (5) 16 dB over background (65 dB); and (6) background only (no stimulus). The amount of prepulse inhibition (PPI) was expressed as the percentage decrease in the amplitude of the startle reactivity caused by presentation of the prepulse (% PPI). The PPI test lasted 20 min in total.

[2] = tested on: sEH; assay: Western blot of sEH in brain regions after maternal glyphosate exposure
Source text: Collection of blood and brain samples and oxylipin analysis. Water or 0.095% glyphosate was given to pregnant mice from E5 to P21, as described above. The male offspring were separated from their mothers at weaning (P21). At juvenile (P28) stage, mice were deeply anesthetized with isoflurane and plasma was collected. Subsequently, brains were removed from the skulls. For Western blot analysis, brain regions such as prefrontal cortex (PFC), hippocampus, and striatum, were dissected from brain on ice. The samples were stored at −80° C. before assay. For oxylipin analysis, plasma was collected after isoflurane anesthesia at juvenile (P28) stage. Subsequently, PFC, hippocampus, and striatum were dissected from brain on ice, and the samples were stored at −80° C. before assay. […]
Western blot analysis. […] 50 μg of protein were measured using the DC protein assay kit (Bio-Rad), and incubated for 5 min at 95° C., with an equal volume of 125 mM Tris-HCl, pH6.8, 20% glycerol, 0.1% bromophenol blue, 10% β-mercaptoethanol, 4% sodium dodecyl sulfate, and subjected to sodium dodecyl sulfate polyacrylamide gel electrophoresis, using 7.5% or AnyKD mini-gels (Mini-PROTEAN® TGX™ Precast Gel; Bio-Rad, CA, USA). […] After final three washes with TBST, bands were detected using enhanced chemiluminescence (ECL) prime Western Blotting Detection system (GE Healthcare Bioscience). […]

[3] = tested on: ddY mice; assay: Three-chamber social interaction test, offspring after maternal glyphosate exposure; conditions: juvenile offspring, maternal 0.095% glyphosate vs water treated group
Experimental: Treatment of TPPU. TPPU was dissolved in polyethylene glycol 400 (PEG 400: Tokyo Chemical Industry Co., Ltd, Tokyo, Japan). TPPU (3 mg/kg/day) or vehicle (5 ml/kg, PEG 400) was administered orally in the pregnant mice from E5 to P21. Behavioral tests of offspring were performed during juvenile stage (P28-P35) after maternal glyphosate exposure (FIG. 1A).
Three-chamber Social Interaction Test: The three-chamber social interaction test was performed to investigate sociability and preference for social novelty in mice, as reported previously (7). The apparatus consisted of a rectangular, three-chambered box and a lid with a video camera (BrainScience Idea, Co., Ltd, Osaka, Japan). Each chamber (20 cm×40 cm×20 cm) was divided by a clear plastic wall with a small square opening (5 cm×8 cm). First, each subject mouse was placed in the box and allowed to explore for 10 min to habituate the environment. During the session, an empty wire cage (10 cm in diameter, 17.5 cm in height, with vertical bars 0.3 cm apart) was located in the center of left and right chamber. Next, an unfamiliar ddY male mouse (stranger 1) that had no prior contact with the subject mouse was put into a wire cage that was placed into one of the side chambers. […] The time spent in each chamber and the time spent around each cage was recorded on video.

[4] = tested on: GAD67; assay: GAD67 immunohistochemistry in mPFC, offspring after MIA; conditions: adult offspring of poly(I:C)-treated mice vs saline-treated group
Experimental: Immunohistochemistry. Immunohistochemistry of PV was performed as reported previously (37,39,59,60). Mice were anesthetized with 5% isoflurane and sodium pentobarbital (50 mg/kg), and perfused transcardially with 10 mL of physiological saline, followed by 40 mL of ice-cold 4% paraformaldehyde in 0.1M phosphate buffer (pH 7.4). Brains were removed from the skulls and post fixed overnight at 4° C. in the same fixative. For the immunohistochemical analysis, 50 μm-thick serial, coronal sections of brain tissue were cut in ice-cold 0.01M phosphate buffered saline (pH 7.5) using a vibrating blade microtome (VT1000s, Leica Microsystems, Tokyo, Japan). Free-floating sections were treated with 0.3% H2O2 in 50 mM Tris-HCl saline (TBS) for 30 min and were blocked in TBS containing 0.2% Triton X-100 (TBST) and 1.5% normal serum for 1 h at room temperature. […] The sections were imaged, and the staining intensity of PV (or GADO immunoreactivity in the inflalimbic (IL) and prelimbic (PrL) regions of mPFC was analyzed using a light micro-scope equipped with a CCD camera (Olympus IX70, Tokyo, Japan) and the SCION IMAGE software package. Images of sections within mPFC region were captured using a 100× objective with a Keyence BZ-X710 microscope (Keyence Corporation, Osaka, Japan).

Compound	prepulse inhibition (PPI) [1]	protein levels of sEH in the PFC, hippocampus, and striatum ([2]; juvenile offspring (P28) after maternal glyphosate exposure vs water)	protein levels of sEH in the PFC and striatum of mothers ([2]; mothers treated with glyphosate vs water-treated mice)	three-chamber social interaction test [3]	GAD67-IR in the PrL and IL of mPFC [4]
O=C(O)CNCP(=O)(O)O [glyphosate]	not different	significantly higher	significantly higher	social interaction deficits	
polyriboinosinic-polyribocytidilic acid [Poly(I:C)]					significantly lower

Reference: US12357598B2, “Treatment of neurodevelopmental disorders” (THE REGENTS OF THE UNIVERSITY OF CALIFORNIA, priority 2018, dated 2025)
